Results published in patent US20040029172A1, “Generation of combinatorial libraries and assessment thereof by deconvolution” (priority 2000, published 2004).

Biological target: Concanavalin A (Canavalia ensiformis, UniProt P02866)
Details: FIG. 5; complete library 2:1-6 and 2:A-I
Protocol: Concanavalin A and all reagents were obtained from common commercial sources (Lancaster, Fluka, Aldrich, Bachem, Sigma). […] The binding effect of the equilibrated mixtures was determined using competitive inhibition of enzyme-labelled concanavalin A, and were carried out using a Victor microtiter plate reader.
The complete library (CL) was designed to contain near equal amounts of each final species at a concentration of approximately 12 μM. The final solution contained 2.5 mM of each carbohydrate aldehyde (2:1-6), and varying amounts of hydrazides: 2:A, 70 μM; 2:B-E, 0.24 mM; 2:F, 0.42 mM; 2:G, 0.65 mM; 2:H, 0.88 mM; 2:I, 2.5 mM. The mixture was made in ammonium formate buffer at pH 4.0, and was equilibrated at ambient temperature for one week to ensure full reaction.
The different sublibraries (SL1-SLI) were prepared under identical conditions, where one component (2:1-6, 2:A-I) was removed from the mixture each time. Aliquots of the solution were subsequently taken out to test the inhibitory activity on Concanavalin A.

O=Cc1ccc(OC2OC(CO)C(O)C(O)C2O)cc1 (stereo not shown) [2:6]
effect on Con A binding when the component is removed from the complete library: largest effects
